Measurements as given in patent publication US5807983A, “GNRH antagonist betides” (The Salk Institute for Biological Studies, priority 1996, dated 1998).

Test system: ovulation in mature female Sprague-Dawley rats
Experiment: standard in vivo rat anti-ovulation test
Details: injected in bacteriostatic water at about noon on the day of proestrus
Procedure: The betide is assayed in vivo to determine its effectiveness to prevent ovulation in female rats. Inthis test, a specified number of mature female Sprague-Dawley rats, e.g. five to ten, each having a body weight from 225 to 250 grams, are injected with a specified microgram dosage of the betide in bacteriostatic water at about noon on the day of proestrus. Proestrus is the […]. A separate female rat group is used as a control to which the peptide is not administered. Each of the control female rats ovulates on the evening of proestrus; the number of the rats treated which ovulate is recorded.

Compound | anti-ovulatory activity: rats ovulating out of rats treated (dosage 5 μg) | anti-ovulatory activity: rats ovulating out of rats treated (dosage 2.5 μg) | anti-ovulatory activity: rats ovulating out of rats treated (dosage 1 μg) | anti-ovulatory activity: rats ovulating out of rats treated (dosage 10 μg) | anti-ovulatory activity: rats ovulating out of rats treated (dosage 0.5 μg)
CC(=O)Nc1ccc(C[C@H](NC(=O)C(NC(=O)CO)NC(=O)[C@@H](Cc2cccnc2)NC(=O)[C@@H](Cc2ccc(Cl)cc2)NC(=O)[C@@H](Cc2ccc3ccccc3c2)NC(C)=O)C(=O)N[C@H](Cc2ccc(NC(C)=O)cc2)C(=O)N[C@@H](CC(C)C)C(=O)N[C@@H](CCCCNC(C)C)C(=O)N2CCC[C@H]2C(=O)N[C@H](C)C(N)=O)cc1 (single isomer, unassigned) [Betide No. 2A one of the isomers, Ac-D-2Nal-D-4Cpa-D-3Pal-D/L-Agl(HO-Ac)Aph(Ac)-D-Aph(Ac)-Leu-Lys(isopropyl)-Pro-D-Ala-NH2] | 2 out of 8 |  |  |  | 
CC(=O)Nc1ccc(C[C@H](NC(=O)C(NC(=O)[C@@H](Cc2cccnc2)NC(=O)[C@@H](Cc2ccc(Cl)cc2)NC(=O)[C@@H](Cc2ccc3ccccc3c2)NC(C)=O)N(C)C=O)C(=O)N[C@H](Cc2ccc(NC(C)=O)cc2)C(=O)N[C@@H](CC(C)C)C(=O)N[C@@H](CCCCNC(C)C)C(=O)N2CCC[C@H]2C(=O)N[C@H](C)C(N)=O)cc1 (single isomer, unassigned) [Betide No. 2 other distereomer, Ac-D-2Nal-D-4Cpa-D-3Pal-D/L-(methyl,formyl)aminoGly-Aph(Ac)-D-Aph(Ac)-Leu- Lys(isopropyl)-Pro-D-Ala-NH2] |  | 8 out of 8 |  |  | 
Ac-D-2Nal-D-4Cpa-D-3Pal-Ser-Aph(acetyl)-D-Aph(acetyl)-D/L-Agl(isobutyryl)- Lys(isopropyl)-Pro-D-Ala-NH2 [Betide No. 6A] |  | 0 out of 8 | 6 out of 8 | 0 out of 8 | 
CC(=O)Nc1ccc(C[C@H](NC(=O)C(NC=O)NC(=O)[C@@H](Cc2cccnc2)NC(=O)[C@@H](Cc2ccc(Cl)cc2)NC(=O)[C@@H](Cc2ccc3ccccc3c2)NC(C)=O)C(=O)N[C@H](Cc2ccc(NC(C)=O)cc2)C(=O)N[C@@H](CC(C)C)C(=O)N[C@@H](CCCCNC(C)C)C(=O)N2CCC[C@H]2C(=O)N[C@H](C)C(N)=O)cc1 (single isomer, unassigned) [Betide No. 2B first isomer, Ac-D-2Nal-D-4Cpa-D-3Pal-D/L-Agl(formyl)-Aph(Ac)-D-Aph(Ac)-Leu-Lys(isopropyl)-Pro-D-Ala-NH2] | 0/8 |  | 2 out of 8 |  | 4 out of 5
Ac-D-2Nal-D-Cpa-D-3Pal-Ser-Aph(acetyl)-D-Aph(acetyl)-D/L-Agl(acetyl)-Lys(isopropyl)-Pro-D-Ala-NH2 [Betide No. 6C] |  |  |  | 0 out of 8 | 4 out of 8
Ac-β-D-2Nal-(4Cl)D-Phe-D-3Pal-Ser-Aph(acetyl)-γ-(4-acetamidophenyl)D/L-amidoGly-Leu-Lys(isopropyl)-Pro-D-Ala-NH2 [Betide No. 5] | 1 out of 8 | 2 out of 8 |  |  | 
CC(=O)Nc1ccc(C[C@H](NC(=O)[C@H](CO)NC(=O)[C@@H](Cc2cccnc2)NC(=O)[C@@H](Cc2ccc(Cl)cc2)NC(=O)C(NC(C)=O)N(C)C(=O)c2ccc3ccccc3c2)C(=O)N[C@H](Cc2ccc(NC(C)=O)cc2)C(=O)N[C@@H](CC(C)C)C(=O)N[C@@H](CCCCNC(C)C)C(=O)N2CCC[C@H]2C(=O)N[C@H](C)C(N)=O)cc1 (single isomer, unassigned) [Betide No. 3C second isomer, Ac-D/L-Agl(methyl,2-naphthoyl)-D-4Cpa-D-3Pal-Ser-Aph(acetyl)-D-Aph(acetyl)-Leu-Lys(isopropyl)-Pro-D-Ala-NH2] | 6 out of 8 |  |  |  | 
Ac-β-D-2Nal-(4Cl)D-Phe-D-3Pal-Ser-(4-acetyl-aminobenzyl,methyl)D/L-amidoGly-D-Aph(acetyl)-Leu-Lys(isopropyl)-Pro-D-D-Ala-NH2 [Betide No. 4A] |  | 0/8 | 5 out of 8 |  | 
Ac-γ-(2-naphthoyl)amidoGly-4Cl-D-Phe-D-3Pal-Ser-Aph(atz)-D-Aph(atz)- Leu-Lys(isopropyl)-Pro-D-Ala-NH2 [Betide No. 3A first isomer] |  | 0/8 | 5 out of 8 |  | 
CC(=O)Nc1ccc(C[C@H](NC(=O)[C@H](CO)NC(=O)C(NC(=O)c2cccnc2)NC(=O)[C@@H](Cc2ccc(Cl)cc2)NC(=O)[C@@H](Cc2ccc3ccccc3c2)NC(C)=O)C(=O)N[C@H](Cc2ccc(NC(C)=O)cc2)C(=O)N[C@@H](CC(C)C)C(=O)N[C@@H](CCCCNC(C)C)C(=O)N2CCC[C@H]2C(=O)N[C@H](C)C(N)=O)cc1 (single isomer, unassigned) [Betide No. 1 isomer (1), Ac-D-2Nal-(4Cl)D-Phe-γ-(3-pyridyl)amidoGly-Ser-Aph(acetyl)-D-Aph(acetyl)-Leu-Lys(isopropyl)-Pro-D-Ala-NH2] |  | 0 out of 7 | all 3 rats ovulate |  | 
Ac-D-2Nal-D-Cpa-D-3Pal-Ser-Aph(acetyl)-D-Aph(acetyl)-D/L-Agl(methyl,isobutyryl)-Lys(isopropyl)-Pro-D-Ala-NH2 [Betide No. 6B] |  | 0 out of 8 | 2 out of 8 |  | 
Ac-γ-(2-naphthoyl)amidoGly-4Cl-D-Phe-D-3Pal-Ser-Aph(atz)-D-Aph(atz)- Leu-Lys(isopropyl)-Pro-D-Ala-NH2 [Betide No. 3A second isomer] |  | 0/3 | 4 out of 8 |  | 
CC(=O)Nc1ccc(C[C@H](NC(=O)[C@H](CO)NC(=O)C(NC(=O)c2cccnc2)NC(=O)[C@@H](Cc2ccc(Cl)cc2)NC(=O)[C@@H](Cc2ccc3ccccc3c2)NC(C)=O)C(=O)N[C@H](Cc2ccc(NC(C)=O)cc2)C(=O)N[C@@H](CC(C)C)C(=O)N[C@@H](CCCCNC(C)C)C(=O)N2CCC[C@H]2C(=O)N[C@H](C)C(N)=O)cc1 (single isomer, unassigned) [Betide No. 1 isomer (2), Ac-D-2Nal-(4Cl)D-Phe-γ-(3-pyridyl)amidoGly-Ser-Aph(acetyl)-D-Aph(acetyl)-Leu-Lys(isopropyl)-Pro-D-Ala-NH2] |  | 0 out of 5 | 6 out of 14 |  | 3 out of 4
Ac-D-2Nal-(4Cl)D-Phe-D-3Pal-Ser-(4-acetyl-aminobenzyl)D/L-amidoGly-D-Aph(acetyl)-Leu-Lys(isopropyl)-Pro-D-Ala-NH2 [Betide No. 4] | 2 out of 8 |  |  |  | 
CC(=O)Nc1ccc(C[C@H](NC(=O)C(NC(=O)[C@@H](Cc2cccnc2)NC(=O)[C@@H](Cc2ccc(Cl)cc2)NC(=O)[C@@H](Cc2ccc3ccccc3c2)NC(C)=O)N(C)C=O)C(=O)N[C@H](Cc2ccc(NC(C)=O)cc2)C(=O)N[C@@H](CC(C)C)C(=O)N[C@@H](CCCCNC(C)C)C(=O)N2CCC[C@H]2C(=O)N[C@H](C)C(N)=O)cc1 (single isomer, unassigned) [Betide No. 2 one isomer, Ac-D-2Nal-D-4Cpa-D-3Pal-D/L-(methyl,formyl)aminoGly-Aph(Ac)-D-Aph(Ac)-Leu- Lys(isopropyl)-Pro-D-Ala-NH2] |  | 5 out of 8 |  |  | 
